Experimental findings from patent US8609689B2, “Pyridopyrazinones derivatives insulin secretion stimulators, methods for obtaining them and use thereof for the treatment of diabetes” (Merck Patent GmbH, priority 2008, dated 2013) are described below.

For one data set, the system named is INS-1 cells. The data set can be described thus: Insulin secretion assay in INS-1 cells (glucose at 4.2 mM). The following applies: 1 h incubation; for activity at 10 µM: Rattus norvegicus, INS1, glucose 4.2 mM, compound 10 μm, read-out: Insulin secretion, % of ctrl at 10 μm of cpd; for Insulin secretion, % of ctrl at 50 μm of cpd: glucose 4.2 mM, compound 50 μm. It is filed as cell-based, rat. As for the experimental part:
INS-1 cells were cultured in complete medium, RPMI1640 containing 1 mM sodium pyruvate, 50 μM 2-mercaptoethanol, 2 mM glutamine, 10 mM HEPES, 100 IU/mL penicillin, and 100 μg/mL streptomycin (CM), supplemented with 10 mM glucose, and 10% (vol/vol) heat-inactivated fetal […] (FCS), as described by Asfari et al. (Endocrinology 130: 167-178, 1992).
INS-1 cells were plated and cultured in 48-well plates. After 2 days of culture, the medium was removed and cells were cultured for 24 h with a medium change to 5 mM glucose, 1% FCS. The cells were then washed with Krebs-Ringer Bicarbonate HEPES buffer (KRBH; 135 mM NaCl; 3.6 mM KCl; 5 mM NaHCO3; 0.5 mM NaH2PO4; 0.5 mM MgCl2; 1.5 mM CaCl2 and 10 mM HEPES; pH 7.4) 0.1% BSA containing 2.8 mM glucose and preincubated for 30 min at 37° C. in the same buffer. The cells were then washed twice and incubated for 1 h in KRBH 0.1% BSA containing 4.2 mM glucose and different concentrations of the tested molecule. Insulin concentration in the collected supernatants was measured with ELISA using rat insulin antibody (Insulin Rat Elit PLUS, cat, ref 10-1145-01).
Insulin secretion results are expressed in % of control (glucose 4.2 mM).

Data set [1] deals with diabetic N0STZ rat islets. As to the kind of experiment: Insulin secretion in diabetic N0STZ rat islets. The format is cell-based. The following applies: 90 min, Means±SEM. How it is done:
14±3 weeks non-fasted N0STZ (PORTHA et al., 1974) male rats (Charles Rivers-Domaine des Oncins, I'Arbresle, France) were anesthetized with sodium pentobarbital (Nembutal®: 45 mg/kg in 5 ml/kg administered intra peritoneally) and body temperature was maintained with a heat lamp.
Rat pancreatic islets of Langerhans were isolated from the pancreas of 8 rats by collagenase P (Boehringer, Meylan, France) digestion. Islets were purified by sedimentation in Hanks balanced salt solution [NaCl (137 mM); KCl (5.36 mM); MgSO4, 7 H2O (0.81 mM); Na2HPO4, 12 H2O (0.34 mM); KH2PO4 (0.44 mM); CaCl2, 2 H2O (1.26 mM); NaHCO3 (4.17 mM)] followed by Ficoll gradient separation. Islets were then hand-picked under stereoscopic microscope and batches of 3 islets were incubated for 90 minutes at 37° C. with continuous shaking under a humidified condition ([…], 5% CO2) in 1 ml of Krebs/Hepes pH 7 solution [NaCl (115 mM), NaHCO3 (24 mM), KCl (5 mM), MgCl2 (1 mM), CaCl2, 2 H2O (1 mM), 0.2% of Bovine serum albumin (Fraction V, fatty acid free, Boehringer, Mannheim), 10 mM Hepes] containing the required glucose or compound concentration. Compounds were dissolved in DMSO at 2.10-2M stock solutions. They were then diluted at the required concentration in Krebs/Hepes buffer containing the required glucose concentration.
At the end of incubation, media was collected and insulin levels were measured using ELISA (EUROBIO, Courtaboeuf, France).
Islets were hand-picked and incubated in the presence of increasing concentrations of compounds in the presence of glucose at 2.8 or 8 mM. At the end of incubation, media was collected and insulin levels were measured using ELISA method. Results are expressed as % of glucose control (2.8 or 8 mM) and represent Means±SEM.

The mark [2] stands for this setting: glucose 2.8 mM, compound 10−4 M.

Each structure is given as a SMILES string.

Take `O=c1c(-c2ccc(Cl)cc2)nc2cccnc2n1CC1CC1` [Example 3, 2-(4-chlorophenyl)-4-cyclopropylmethylpyrido[2,3-b]pyrazin-3(4H)-one]: in the data set on INS-1 cells, the activity at 10 µM amounted to 241%. The “Insulin secretion, % of ctrl at 50 μm of cpd” value (“Insulin secretion, % of ctrl” below) in the data set with INS-1 cells is 398 % of ctrl. The “Insulin secretion, % of glucose control” value was 85 ± 8 % of glucose control in data set [1] (setting [2]); 168 ± 7 % of glucose control in data set [1] (glucose 8 mM, compound 10−4 M); 145 ± 9 % of glucose control in data set [1] (glucose 8 mM, compound 10−5 M); 110 ± 7 % of glucose control in data set [1] (glucose 8 mM, compound 10−6 M); 100 ± 7 % of glucose control in data set [1] (glucose 8 mM, compound 10−7 M).

On to `CCn1c(=O)c(-c2ccc(Cl)cc2)nc2cccnc21` [Example 3-2, 2-(4-chlorophenyl)-4-ethylpyrido[2,3-b]pyrazin-3(4H)-one], for which, in the data set on INS-1 cells, the activity at 10 µM came out at 240% and the “Insulin secretion, % of ctrl” value was 263 % of ctrl.

As for `CCn1c(=O)c(-c2ccc(F)cc2)nc2cccnc21` [Example 3-3, 2-(4-fluorophenyl)-4-ethylpyrido[2,3-b]pyrazin-3(4H)-one], in the data set with INS-1 cells, the activity at 10 µM turned out to be 235% and the “Insulin secretion, % of ctrl” value was 251 % of ctrl.

With `CCn1c(=O)c(-c2ccccc2)nc2cccnc21` [Example 3-4, 4-ethyl-2-phenylpyrido[2,3-b]pyrazin-3(4H)-one], in the data set on INS-1 cells, the activity at 10 µM stood at 226% and the “Insulin secretion, % of ctrl” value is given as 302 % of ctrl.

For `O=c1c(-c2ccc(Cl)cc2)nc2cccnc2n1C1CC1` [Example 3-5, 2-(4-chlorophenyl)-4-cyclopropylpyrido[2,3-b]pyrazin-3(4H)-one], in the data set on INS-1 cells, the activity at 10 µM is 418% and the “Insulin secretion, % of ctrl” value was 610 % of ctrl.

On to `O=c1c(-c2ccc(F)cc2)nc2cccnc2n1C1CC1` [Example 3-6, 4-cyclopropyl-2-(4-fluorophenyl)pyrido[2,3-b]pyrazin-3(4H)-one], for which, in the data set on INS-1 cells, the activity at 10 µM turned out to be 231% and the “Insulin secretion, % of ctrl” value was 255 % of ctrl.

For `O=c1c(-c2ccc(F)cc2)nc2cccnc2n1CC1CC1` [Example 3-7, 4-cyclopropylmethyl-2-(4-fluorophenyl)pyrido[2,3-b]pyrazin-3(4H)-one], the activity at 10 µM in the data set with INS-1 cells was determined as 208%. Further, in the data set with INS-1 cells, the “Insulin secretion, % of ctrl” value is given as 221 % of ctrl. Moreover, the “Insulin secretion, % of glucose control” value in data set [1] (setting [2]) is given as 84 ± 10 % of glucose control; in data set [1] (glucose 8 mM, compound 10−4 M), 228 ± 12 % of glucose control; in data set [1] (glucose 8 mM, compound 10−5 M), 210 ± 9 % of glucose control; in data set [1] (glucose 8 mM, compound 10−6 M), 149 ± 9 % of glucose control; in data set [1] (glucose 8 mM, compound 10−7 M) it was 124 ± 7 % of glucose control.

`O=c1c(-c2ccc(Cl)cc2)nc2cccnc2n1CC(F)F` [Example 3-8, 2-(4-chlorophenyl)-4-(2,2-difluoroethyl)pyrido[2,3-b]pyrazin-3(4H)-one]: in the data set with INS-1 cells, the activity at 10 µM stood at 273%.

The term melting point denotes the temperature of the solid-liquid transition. `Cc1ccnc2c1nc(-c1ccc(Cl)cc1)c(=O)n2C1CC1` [Example 3-13, 2-(4-chlorophenyl)-4-cyclopropyl-8-methylpyrido[2,3-b]pyrazin-3(4H)-one]: the melting point fell in the range of 159 to 163 °C.

In the case of `COCCn1c(=O)c(-c2ccc(F)cc2)nc2cccnc21` [Example 3-16, 2-(4-fluorophenyl)-4-(2-methoxyethyl)pyrido[2,3-b]pyrazin-3(4H)-one], the melting point lay within 124 to 127 °C. The activity at 10 µM in the data set on INS-1 cells came out at 254%.

Consider `CC(C)n1c(=O)c(-c2ccc(Cl)cc2)nc2cccnc21` [Example 3-18, 2-(4-chlorophenyl)-4-isopropyl-pyrido[2,3-b]pyrazin-3(4H)-one], for which, in the data set with INS-1 cells, the activity at 10 µM was found to be 338%.

Turning to `Cc1cc(F)ccc1-c1nc2cccnc2n(C2CC2)c1=O` [Example 6-2, 4-cyclopropyl-2-(4-fluoro-2-methylphenyl)pyrido[2,3-b]pyrazin-3(4H)-one], the melting point fell in the range of 165 to 167 °C.
